# Source: PubChem BioAssay (NCI)
#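 Where inhibition never reached the appropriate level, the endpoint shown equals the highest concentration tested. Otherwise, values were interpolated linearly from a five-concentration, 48-hour dose response in 96-well plates. GI50 marks 50% less growth. At the TGI there is no net growth.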
# What was measured:
# Assay in all cases: DTP human tumour cell line panel, 48 h
# HOP-62 NSCLC = test system: HOP-62 NSCLC
# HOP-92 NSCLC = test system: HOP-92 NSCLC
# SF-539 CNS = test system: SF-539 CNS
# RXF 393 renal = test system: RXF 393 renal
# SNB-19 CNS = test system: SNB-19 CNS
# OVCAR-3 ovarian = test system: OVCAR-3 ovarian
# ACHN renal = test system: ACHN renal
# CCRF-CEM leukemia = test system: CCRF-CEM leukemia
# SNB-75 CNS = test system: SNB-75 CNS
# CAKI-1 renal = test system: CAKI-1 renal
# K-562 leukemia = test system: K-562 leukemia
# IGROV1 ovarian = test system: IGROV1 ovarian
# SR leukemia = test system: SR leukemia
# EKVX NSCLC = test system: EKVX NSCLC
# HCC-2998 colon = test system: HCC-2998 colon
# SK-MEL-2 melanoma = test system: SK-MEL-2 melanoma
# HCT-15 colon = test system: HCT-15 colon
# NCI-H226 lung = test system: NCI-H226 lung
# UACC-257 melanoma = test system: UACC-257 melanoma
# OVCAR-4 ovarian = test system: OVCAR-4 ovarian
# OVCAR-8 ovarian = test system: OVCAR-8 ovarian
# SK-MEL-5 melanoma = test system: SK-MEL-5 melanoma
# HCT-116 colon = test system: HCT-116 colon
# SF-268 CNS = test system: SF-268 CNS
# SK-OV-3 ovarian = test system: SK-OV-3 ovarian
# A498 renal = test system: A498 renal
# HS 578T breast = test system: HS 578T breast
# NCI/ADR-RES ovarian = test system: NCI/ADR-RES ovarian
# KM12 colon = test system: KM12 colon
# MOLT-4 leukemia = test system: MOLT-4 leukemia
# DU-145 prostate = test system: DU-145 prostate
# A549 NSCLC = test system: A549 NSCLC
# COLO 205 colon = test system: COLO 205 colon
# MALME-3M melanoma = test system: MALME-3M melanoma
# NCI-H23 lung = test system: NCI-H23 lung
# M14 melanoma = test system: M14 melanoma
# HL-60(TB) leukemia = test system: HL-60(TB) leukemia
# NCI-H460 lung = test system: NCI-H460 lung
# MDA-MB-435 = test system: MDA-MB-435
# SF-295 CNS = test system: SF-295 CNS
# MDA-MB-231 breast = test system: MDA-MB-231 breast
# HT29 colon = test system: HT29 colon
# OVCAR-5 ovarian = test system: OVCAR-5 ovarian
# UO-31 renal = test system: UO-31 renal
# U251 CNS = test system: U251 CNS
# SK-MEL-28 melanoma = test system: SK-MEL-28 melanoma
# RPMI-8226 leukemia = test system: RPMI-8226 leukemia
# SW-620 colon = test system: SW-620 colon
# NCI-H522 lung = test system: NCI-H522 lung
# BT-549 breast = test system: BT-549 breast
# TK-10 renal = test system: TK-10 renal
# T-47D breast = test system: T-47D breast
# LOX IMVI melanoma = test system: LOX IMVI melanoma
# MCF7 breast = test system: MCF7 breast
smiles,measurement,setting,value
COc1ccc(/C=C/C2C(C#N)=C(N)OC3=C2C(=O)CCC3)cc1 (stereo not drawn),GI50,HOP-62 NSCLC,29.6 µM
same,TGI,HOP-62 NSCLC,62.7 µM
same,GI50,HOP-92 NSCLC,23.6 µM
same,TGI,HOP-92 NSCLC,46.9 µM
same,GI50,SF-539 CNS,31.3 µM
same,TGI,SF-539 CNS,80.1 µM
same,GI50,RXF 393 renal,18.7 µM
same,TGI,RXF 393 renal,35.9 µM
same,GI50,SNB-19 CNS,19.8 µM
same,TGI,SNB-19 CNS,43.1 µM
same,GI50,OVCAR-3 ovarian,34 µM
same,TGI,OVCAR-3 ovarian,> 100 µM
same,GI50,ACHN renal,17.7 µM
same,TGI,ACHN renal,33.7 µM
same,GI50,CCRF-CEM leukemia,4.05 µM
same,TGI,CCRF-CEM leukemia,16.6 µM
same,GI50,SNB-75 CNS,19.9 µM
same,TGI,SNB-75 CNS,37.4 µM
same,GI50,CAKI-1 renal,40.8 µM
same,TGI,CAKI-1 renal,97.3 µM
same,GI50,K-562 leukemia,24.4 µM
same,TGI,K-562 leukemia,> 100 µM
same,GI50,IGROV1 ovarian,22 µM
same,TGI,IGROV1 ovarian,41.3 µM
same,GI50,SR leukemia,2.71 µM
same,TGI,SR leukemia,16 µM
same,GI50,EKVX NSCLC,38 µM
same,TGI,EKVX NSCLC,> 100 µM
same,GI50,HCC-2998 colon,18.2 µM
same,TGI,HCC-2998 colon,32.9 µM
same,GI50,SK-MEL-2 melanoma,38.5 µM
same,TGI,SK-MEL-2 melanoma,> 100 µM
same,GI50,HCT-15 colon,21.4 µM
same,TGI,HCT-15 colon,> 100 µM
same,GI50,NCI-H226 lung,15 µM
same,TGI,NCI-H226 lung,34 µM
same,GI50,UACC-257 melanoma,23 µM
same,TGI,UACC-257 melanoma,49.5 µM
same,GI50,OVCAR-4 ovarian,22.8 µM
same,TGI,OVCAR-4 ovarian,66.5 µM
same,GI50,OVCAR-8 ovarian,21.2 µM
same,TGI,OVCAR-8 ovarian,> 100 µM
same,GI50,SK-MEL-5 melanoma,18.1 µM
same,TGI,SK-MEL-5 melanoma,32.8 µM
same,GI50,HCT-116 colon,7.39 µM
same,TGI,HCT-116 colon,20 µM
same,GI50,SF-268 CNS,13.8 µM
same,TGI,SF-268 CNS,30.5 µM
same,GI50,SK-OV-3 ovarian,25.1 µM
same,TGI,SK-OV-3 ovarian,77.6 µM
same,GI50,A498 renal,22.6 µM
same,TGI,A498 renal,41 µM
same,GI50,HS 578T breast,63 µM
same,TGI,HS 578T breast,> 100 µM
same,GI50,NCI/ADR-RES ovarian,33.9 µM
same,TGI,NCI/ADR-RES ovarian,> 100 µM
same,GI50,KM12 colon,13.5 µM
same,TGI,KM12 colon,28.6 µM
same,GI50,MOLT-4 leukemia,4.23 µM
same,TGI,MOLT-4 leukemia,19.7 µM
same,GI50,DU-145 prostate,15.9 µM
same,TGI,DU-145 prostate,33.7 µM
same,GI50,A549 NSCLC,32.4 µM
same,TGI,A549 NSCLC,97 µM
same,GI50,COLO 205 colon,21.1 µM
same,TGI,COLO 205 colon,41.2 µM
same,GI50,MALME-3M melanoma,31.9 µM
same,TGI,MALME-3M melanoma,87.1 µM
same,GI50,NCI-H23 lung,20.1 µM
same,TGI,NCI-H23 lung,47.7 µM
same,GI50,M14 melanoma,20.8 µM
same,TGI,M14 melanoma,49.6 µM
same,GI50,HL-60(TB) leukemia,5.28 µM
same,TGI,HL-60(TB) leukemia,63.2 µM
same,GI50,NCI-H460 lung,16.9 µM
same,TGI,NCI-H460 lung,35 µM
same,GI50,MDA-MB-435,18.4 µM
same,TGI,MDA-MB-435,61.3 µM
same,GI50,SF-295 CNS,21.5 µM
same,TGI,SF-295 CNS,50.1 µM
same,GI50,MDA-MB-231 breast,2.54 µM
same,TGI,MDA-MB-231 breast,8.79 µM
same,GI50,HT29 colon,7.9 µM
same,TGI,HT29 colon,20.2 µM
same,GI50,OVCAR-5 ovarian,18.8 µM
same,TGI,OVCAR-5 ovarian,34.5 µM
same,GI50,UO-31 renal,18.2 µM
same,TGI,UO-31 renal,33.1 µM
same,GI50,U251 CNS,12.5 µM
same,TGI,U251 CNS,25 µM
same,GI50,SK-MEL-28 melanoma,17.9 µM
same,TGI,SK-MEL-28 melanoma,35.3 µM
same,GI50,RPMI-8226 leukemia,2.14 µM
same,TGI,RPMI-8226 leukemia,5.18 µM
same,GI50,SW-620 colon,29.7 µM
same,TGI,SW-620 colon,> 100 µM
same,GI50,NCI-H522 lung,18.3 µM
same,TGI,NCI-H522 lung,38.9 µM
same,GI50,BT-549 breast,31.9 µM
same,TGI,BT-549 breast,> 100 µM
same,GI50,TK-10 renal,26.9 µM
same,TGI,TK-10 renal,63.8 µM
same,GI50,T-47D breast,29.4 µM
same,TGI,T-47D breast,> 100 µM
same,GI50,LOX IMVI melanoma,11.4 µM
same,TGI,LOX IMVI melanoma,23.4 µM
same,GI50,MCF7 breast,12.1 µM
same,TGI,MCF7 breast,26.4 µM
